Measured values published in PubChem BioAssay AID2060897 (Molecular Pharmacology Branch, DTP, NCI, 2025).

Test system: 966289-007-R4-J1-PDC complex spheroid viability
Assay: Anticancer human tumor 966289-007-R4-J1-PDC patient-derived pancreatic adenocarcinoma cell line growth inhibition [RAS]
Settings: for IC50: curve of first compound; for viability, T/C: stronger effect = lower value
Procedure, shortened: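 Agents were tested in combination matrices in half-log decrements from a top concentration at or near clinical Cmax (10 microM if undetermined). Targets were multi-cell spheroids of tumour lines plus HUVEC and MSC stromal cells.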

[1] = second compound 0.00316 µM, first compound 0.0316 µM
[2] = second compound 0.00316 µM, first compound 0.1 µM
[3] = second compound 0.00316 µM, first compound 0.316 µM
[4] = second compound 0.00316 µM, first compound 1 µM
[5] = second compound 0.01 µM, first compound 0.0316 µM
[6] = second compound 0.01 µM, first compound 0.1 µM
[7] = second compound 0.01 µM, first compound 0.316 µM
[8] = second compound 0.01 µM, first compound 1 µM
[9] = second compound 0.0316 µM, first compound 0.0316 µM
[10] = second compound 0.0316 µM, first compound 0.1 µM
[11] = second compound 0.0316 µM, first compound 0.316 µM
[12] = second compound 0.0316 µM, first compound 1 µM
[13] = second compound 0.1 µM, first compound 0.0316 µM
[14] = second compound 0.1 µM, first compound 0.1 µM
[15] = second compound 0.1 µM, first compound 0.316 µM
[16] = second compound 0.1 µM, first compound 1 µM
[17] = second compound 0.316 µM, first compound 0.0316 µM
[18] = second compound 0.316 µM, first compound 0.1 µM
[19] = second compound 0.316 µM, first compound 0.316 µM
[20] = second compound 0.316 µM, first compound 1 µM
[21] = second compound 1 µM, first compound 0.0316 µM
[22] = second compound 1 µM, first compound 0.1 µM
[23] = second compound 1 µM, first compound 0.316 µM
[24] = second compound 1 µM, first compound 1 µM
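Also: spheroids exposed to agents for one week before readout.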
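For viability, T/C in this document: percent viability relative to DMSO vehicle control wells as 100%.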

Structure (SMILES): CC(=O)OC12COC1CC(O)C1(C)C(=O)C(O)C3=C(C)C(OC(=O)C(O)C(NC(=O)OC(C)(C)C)c4ccccc4)CC(O)(C(OC(=O)c4ccccc4)C21)C3(C)C (centres undefined) + C=CC(=O)N1CCN(c2nc(OCC3CCCN3C)nc3c(F)c(-c4nc(N)cc(C)c4C(F)(F)F)c(Cl)cc23)C(C)C1
- IC50 (second compound 0.00316 µM): < 31.6 nM
- IC50 (second compound 0.01 µM): < 31.6 nM
- IC50 (second compound 0.0316 µM): < 31.6 nM
- IC50 (second compound 0.1 µM): < 31.6 nM
- IC50 (second compound 0.316 µM): < 31.6 nM
- IC50 (second compound 1 µM): < 31.6 nM
- viability, T/C [1]: 7.49%
- viability, T/C [2]: 11.8%
- viability, T/C [3]: 14.4%
- viability, T/C [4]: 20.6%
- viability, T/C (second compound 0.00316 µM, first compound 3.16 µM): 30.4%
- viability, T/C (second compound 0.00316 µM, first compound 10 µM): 48.1%
- viability, T/C [5]: 7.11%
- viability, T/C [6]: 11.6%
- viability, T/C [7]: 14.8%
- viability, T/C [8]: 19.2%
- viability, T/C (second compound 0.01 µM, first compound 3.16 µM): 31.9%
- viability, T/C (second compound 0.01 µM, first compound 10 µM): 60.7%
- viability, T/C [9]: 7.67%
- viability, T/C [10]: 13.9%
- viability, T/C [11]: 10.9%
- viability, T/C [12]: 18.2%
- viability, T/C (second compound 0.0316 µM, first compound 3.16 µM): 33.2%
- viability, T/C (second compound 0.0316 µM, first compound 10 µM): 56.3%
- viability, T/C [13]: 6.48%
- viability, T/C [14]: 12.7%
- viability, T/C [15]: 15.2%
- viability, T/C [16]: 21.9%
- viability, T/C (second compound 0.1 µM, first compound 3.16 µM): 30.4%
- viability, T/C (second compound 0.1 µM, first compound 10 µM): 57.9%
- viability, T/C [17]: 7.29%
- viability, T/C [18]: 12%
- viability, T/C [19]: 12.1%
- viability, T/C [20]: 15.3%
- viability, T/C (second compound 0.316 µM, first compound 3.16 µM): 30.3%
- viability, T/C (second compound 0.316 µM, first compound 10 µM): 56.1%
- viability, T/C [21]: 8.02%
- viability, T/C [22]: 12.3%
- viability, T/C [23]: 12.5%
- viability, T/C [24]: 19%
- viability, T/C (second compound 1 µM, first compound 3.16 µM): 35.8%
- viability, T/C (second compound 1 µM, first compound 10 µM): 49.2%

Structure (SMILES): Nc1ccn(C2OC(CO)C(O)C2(F)F)c(=O)n1 (centres undefined) + C=CC(=O)N1CCN(c2nc(OCC3CCCN3C)nc3c(F)c(-c4nc(N)cc(C)c4C(F)(F)F)c(Cl)cc23)C(C)C1
- IC50 (second compound 0.00316 µM): 6.89 nM
- IC50 (second compound 0.01 µM): 8.14 nM
- IC50 (second compound 0.0316 µM): 6.88 nM
- IC50 (second compound 0.1 µM): 6.58 nM
- IC50 (second compound 0.316 µM): 6.55 nM
- IC50 (second compound 1 µM): 6.83 nM
- viability, T/C (second compound 0.00316 µM, first compound 0.00316 µM): 108%
- viability, T/C (second compound 0.00316 µM, first compound 0.01 µM): 22.2%
- viability, T/C [1]: 1.32%
- viability, T/C [2]: 1.25%
- viability, T/C [3]: 1.36%
- viability, T/C [4]: 1.34%
- viability, T/C (second compound 0.01 µM, first compound 0.00316 µM): 113%
- viability, T/C (second compound 0.01 µM, first compound 0.01 µM): 36.4%
- viability, T/C [5]: 1.5%
- viability, T/C [6]: 1.37%
- viability, T/C [7]: 1.44%
- viability, T/C [8]: 1.42%
- viability, T/C (second compound 0.0316 µM, first compound 0.00316 µM): 100%
- viability, T/C (second compound 0.0316 µM, first compound 0.01 µM): 25.8%
- viability, T/C [9]: 1.29%
- viability, T/C [10]: 1.37%
- viability, T/C [11]: 1.47%
- viability, T/C [12]: 1.19%
- viability, T/C (second compound 0.1 µM, first compound 0.00316 µM): 89.6%
- viability, T/C (second compound 0.1 µM, first compound 0.01 µM): 27.3%
- viability, T/C [13]: 1.5%
- viability, T/C [14]: 1.39%
- viability, T/C [15]: 1.15%
- viability, T/C [16]: 1.1%
- viability, T/C (second compound 0.316 µM, first compound 0.00316 µM): 93.6%
- viability, T/C (second compound 0.316 µM, first compound 0.01 µM): 24.8%
- viability, T/C [17]: 1.51%
- viability, T/C [18]: 1.29%
- viability, T/C [19]: 1.52%
- viability, T/C [20]: 1.25%
- viability, T/C (second compound 1 µM, first compound 0.00316 µM): 93.5%
- viability, T/C (second compound 1 µM, first compound 0.01 µM): 28.4%
- viability, T/C [21]: 1.78%
- viability, T/C [22]: 1.63%
- viability, T/C [23]: 1.74%
- viability, T/C [24]: 1.61%
